Data published in patent US12427346B2, “P62 ligand compound, and composition for preventing, ameliorating or treating proteinopathies comprising the same” (AUTOTAC INC., priority 2018, dated 2025).
Structures can show the parent of a compound that is named as a salt.

Assays:
Type in all cases: cell-based, human
p62 and LC3 [1] = experiment: Autophagy activity of control compounds by immunofluorescence staining and confocal microscopy (Experimental Example 6); details: different concentrations, FIG. 7
Procedure: In order to confirm p62 protein activity and the activity level of autophagy phenomenon of control compounds (YOK-A-1104, YOK-G-1104, YTK-1005, YTK-1105-1), immunofluorescence staining was performed in the same manner as in Experimental Example 4 by using p62 and LC3 as markers. YOK-A-1104 and YOK-G-1104 are compounds having the following structures.
The compounds were treated at different concentrations, and intracellular puncta of p62 or LC3, that is, the degree to which autophagosome was formed and p62 was delivered was observed by a confocal microscopy.

LC3 [2] = experiment: Autophagy activity in cultured cells by immunoblotting, concentration series (Experimental Example 2); details: HeLa cells; 1, 2, 5, 10 and 20 μM, 24 hours; immunoblot, FIG. 3
Procedure: In order to evaluate the autophagy activity efficacy by the compounds (Examples 1-25), HeLa cell line, which is a cell line derived from a cervical cancer patient, was cultured using a DMEM medium containing 10% FBS and 1% streptomycin/penicillin in an incubator with 5% carbon dioxide. As the representative compounds among the present compounds, the compounds of Examples 1, 2, 3, 5, 6, 7, 8, 9, 12 and 13 (Example 5 (YTK-1005), Example 1 (YTK-1105), Example 6 (YTK-1205), Example 7 (YTK-1305), Example 2 (YTK-2205), Example 3 (YTK-3305), Example 8 (YTK-105), Example 9 (YTK-205), Example 14 (YTK-1108), Example 12 (YT 5-7), Example 13 (YT 5-8)), Example 20 (ATB10041), Example 21 (ATB10042), Example 22 (ATB10043), Example 23 (ATB10044), Example 24 (ATB10045), and Example 25 (ATB10046)) were selected. In order to measure autophagy activity according to the treatment with these selected representative compounds, the respective cells were dispensed into 6 well plates. Additional cultures were performed for 24 hours so that the cells were completely attached to the surface of the plate. To find the concentration at which the respective compounds could increase the phenomenon of autophagy, the test compounds were diluted at 1, 2, 5, 10 and 20 μM and treated. After treatment with the respective compounds, the cells were cultured again in a cell incubator for 24 hours, and then the cells were collected. To extract proteins from the collected cells, 100 ul of lysis buffer (20 mM Tris (pH 7.4), 150 mM NaCl, 1% Triton X-100, 2 mM NaF, 2 mM EDTA, 2 mM beta-glycerophosphate, 5 mM sodium orthovanadate, 1 mM PMSF, leupeptin, aprotinin) was injected into each sample, and cells were lysed. Based on the measured total protein concentration, a sample buffer was added to each sample and allowed to react at 100° C. for 5 minutes. 5 ul was taken from the samples after the reaction, and dispensed into each well of acrylamide gel, and then immunoblotting was performed.

LC3 [3] = experiment: Autophagy activity in cultured cells by immunoblotting, treatment time (Experimental Example 3); details: HeLa cells; 5 μM for 1, 3, 6, 12, 24, 48 hours or 10 μM for 24 hours; immunoblot, FIG. 4
Procedure: In order to investigate the autophagy activity efficacy by the compounds (Examples 1-25), immunoblotting was performed in the same manner as in Experimental Example 2 using LC3 as a marker. As for the difference, in order to evaluate the treatment time required for activation and the activity retention time, 5 μM of the representative compounds selected among the present compounds (Example 5 (YTK-1005), Example 6 (YTK-1205), Example 7 (YTK-1305), Example 2 (YTK-2205), Example 3 (YTK-3305), Example 14 (YTK-1108), Example 8 (YTK-105), Example 9 (YTK-205)) were treated for 1, 3, 6, 12, 24, 48 hours. On the other hand, 10 μM of the representative compounds selected among the present compounds (Example 10 (YT 5-1), Example 11 (YT 5-2), Example 16 (YT 8-8), Example 15 (YT 8-7), Example 17 (YTK-107), Example 18 (YTK-207), Example 20 (ATB10041), Example 21 (ATB10042), Example 22 (ATB10043), Example 23 (ATB10044), Example 24 (ATB10045), Example 25 (ATB10046)) were treated for 24 hours.

p62 and LC3 [4] = experiment: Autophagy activity by immunofluorescence staining and confocal microscopy (Experimental Example 5); details: HeLa cells, 5 uM, 24 hours, FIG. 6
Procedure: In order to confirm the p62 protein activity and the activity level of autophagy phenomenon by the compounds (Examples 1-25), immunofluorescence staining was performed using p62 and LC3 as markers. In order to confirm the p62 activity and the activity level of autophagy phenomenon by new p62 ligands and isomers thereof in cultured cells, HeLa cell line, which is a cell line derived from cervical cancer patient, was treated with the novel p62 ligand compounds (YTK-1205, YTK-1305, YTK-2205, YTK-3305, YTK-105, YTK-205, YT 5-1, YT 9-1, YT 5-2, YT 9-2, YT 8-2, YT 8-1, YTK-107, YTK-207) and cultured. Thereafter, as markers of the autophagy phenomenon, the expression level and location of LC3 puncta and the local co-existence with p62 puncta were observed.
For immunofluorescence staining, a cover glass was placed on a 24-well plate, cells were dispensed, cultured for 24 hours, and then treated with 5 uM of the novel p62 ligands according to the present invention. For the action of the compounds, additional cultures were performed for 24 hours, and then the medium was removed. Cells were fixed using formaldehyde at room temperature. In order to prevent non-specific staining, the cells were allowed to react with a blocking solution at room temperature for 1 hour, and then treated with LC3 antibody diluted at a certain ratio using the blocking solution, and allowed to reacted at room temperature for 1 hour. The antibody-treated cells were washed three times with PBS, and goat-derived secondary antibody was diluted at a certain ratio using the blocking solution, and then allowed to react at room temperature for 30 minutes. The cells were washed again with PBS three times, and for intracellular nuclear staining, the expression level, intracellular puncta formation and intracellular coexistence level of p62 and LC3 were observed through a confocal microscopy after DAPI staining.

CCOC(=O)C(C)NC[C@@H](O)COc1ccc(OCc2ccccc2)c(OCc2ccccc2)c1 (stereo partly drawn) [YOK ALA-1104, Ethyl (R)-(3-(3,4-bis(benzyloxy)phenoxy)-2-hydroxypropyl)alanineate]
p62 activation and oligomerization, delivery to autophagosome, autophagy activity (p62 and LC3 puncta) of control compounds (p62 and LC3 [1]): allow the activation and oligomerization of p62 proteins and then show the efficacy of delivering them to autophagosome and simultaneously increasing autophagy activity

COC(=O)CNC[C@@H](O)COc1ccc(OCc2ccccc2)c(OCc2ccccc2)c1 [YOK R-Gly-1104, Methyl (R)-(3-(3,4-bis(benzyloxy)phenoxy)-2-hydroxypropyl)glycineate]
p62 activation and oligomerization, delivery to autophagosome, autophagy activity (p62 and LC3 puncta) of control compounds (p62 and LC3 [1]): allow the activation and oligomerization of p62 proteins and then show the efficacy of delivering them to autophagosome and simultaneously increasing autophagy activity

OCCNCc1ccc(OCc2ccccc2)c(O)c1 [YTK-HCl-1005, 2-(benzyloxy)-5-(((2-hydroxyethyl)amino)methyl)phenol]
autophagy activity (level of LC3) (LC3 [2]): increasing the autophagy activity
autophagy activity (level of LC3) (LC3 [3]): increasing the autophagy activity
p62 activation and oligomerization, delivery to autophagosome, autophagy activity (p62 and LC3 puncta) of control compounds (p62 and LC3 [1]): allow the activation and oligomerization of p62 proteins and then show the efficacy of delivering them to autophagosome and simultaneously increasing autophagy activity

OCCNCc1cccc(OCCc2ccccc2)c1 [YTK-205, 2-((3-(phenethoxy)benzyl)amino)ethan-1-ol]
autophagy activity (level of LC3) (LC3 [2]): increasing the autophagy activity
autophagy activity (level of LC3) (LC3 [3]): increasing the autophagy activity
p62 activation and oligomerization, delivery to autophagosome, autophagy activity (p62 and LC3 puncta, local coexistence) (p62 and LC3 [4]): allow the activation and oligomerization of p62 proteins, and then show the efficacy of delivering them to autophagosome and simultaneously increasing autophagy activity

OCCCCc1ccc(OCc2ccccc2)c(OCc2ccccc2)c1 [YTK HCl-1105-1, 4-(3,4-bis(benzyloxy)phenyl)butan-1-ol]
p62 activation and oligomerization, delivery to autophagosome, autophagy activity (p62 and LC3 puncta) of control compounds (p62 and LC3 [1]): allow the activation and oligomerization of p62 proteins and then show the efficacy of delivering them to autophagosome and simultaneously increasing autophagy activity
